Measured values published in US7652047B2, “Phenylamino isothiazole carboxamidines as MEK inhibitors” (Ardea Biosciences, Inc., priority 2005, dated 2010).
pIC50: −log10 of the molar value.

Biological target: T1, MEK1^CA (human GST-MEK1, constitutively active, Ser218Asp and Ser222Asp) (Homo sapiens, UniProt Q02750, S218D/S222D)
T1 construct: GST; made in house; host or cells: Escherichia coli
Assay: MEK1 enzymatic activity assay (MEK1^CA / ERK2 / MBP, [γ-33P]ATP incorporation)
Assay type: biochemical
Settings: Table 1, compounds of formula I; read-out: Avg IC50
How it was run: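 Cascade assay: 25 µl reactions with 0.002 nmol E. coli-expressed GST-MEK1 S218D/S222D, 0.02 nmol His-tagged mouse ERK2, 0.25 nmol MBP, 0.25 nmol unlabeled ATP and 0.1 µCi [γ-33P]ATP. Compound preincubated 30 min at ambient temperature with MEK1/ERK2; stopped with TCA, 33P-labelled protein filter-captured and scintillation-counted.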

T1 sequence (Q02750 whole entry S218D/S222D): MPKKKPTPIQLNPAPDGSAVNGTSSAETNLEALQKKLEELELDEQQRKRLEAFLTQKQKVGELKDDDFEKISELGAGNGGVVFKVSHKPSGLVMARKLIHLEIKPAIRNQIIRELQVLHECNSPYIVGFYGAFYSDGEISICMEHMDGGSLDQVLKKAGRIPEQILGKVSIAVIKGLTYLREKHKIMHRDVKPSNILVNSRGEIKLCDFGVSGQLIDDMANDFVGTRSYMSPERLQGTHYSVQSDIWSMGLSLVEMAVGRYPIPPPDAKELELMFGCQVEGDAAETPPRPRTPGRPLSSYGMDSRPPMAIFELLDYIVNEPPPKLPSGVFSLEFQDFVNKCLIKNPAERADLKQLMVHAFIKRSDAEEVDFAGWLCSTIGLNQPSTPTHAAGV

SMILES | pIC50
N=C(NCCO)c1c(O)nsc1Nc1ccc(Oc2ccccc2Cl)cc1 [compound 213] | 7.00 to 9.00
N=C(NCC(O)CO)c1c(O)nsc1Nc1ccc(I)cc1 (centres unmarked) [compound 216] | < 6.30
N=C(NCCO)c1c(O)nsc1Nc1ccc(I)cc1 [compound 217] | < 6.30
CC(CO)NC(=N)c1c(O)nsc1Nc1ccc(/N=N/c2ccccc2)cc1 (centres unmarked) [compound 219] | 7.00 to 9.00
CC(CO)NC(=N)c1c(O)nsc1Nc1ccc(OC2CCCCC2)cc1 (centres unmarked) [compound 220] | < 6.30
N=C(NCCO)c1c(O)nsc1Nc1ccc(Oc2ccc(Cl)cc2Cl)cc1 [compound 221] | 6.30 to 7.00
CC(C)NC(=N)c1c(O)nsc1Nc1cc(Cl)cc(Cl)c1 [compound 224] | 6.30 to 7.00
CC(C)NC(=N)c1c(O)nsc1Nc1ccc(Cl)cc1Cl [compound 225] | 7.00 to 9.00
CC(C)NC(=N)c1c(O)nsc1Nc1ccc2c(c1)Cc1ccccc1-2 [compound 227] | < 6.30
N=C(NCC(O)O)c1c(O)nsc1Nc1ccc(Oc2ccc(Cl)cc2Cl)cc1 [compound 229] | 7.00 to 9.00
CNC(=N)c1c(O)nsc1Nc1ccc(Oc2ccc(F)cc2)c(Br)c1 [compound 230] | < 6.30
CNC(=N)c1c(O)nsc1Nc1ccc(Oc2ccc(Cl)cc2Cl)cc1 [compound 231] | 6.30 to 7.00
CC(C)NC(=N)c1c(O)nsc1Nc1ccc(Oc2ccc(Cl)cc2Cl)cc1 [compound 232] | 7.00 to 9.00
CC(CO)NC(=N)c1c(O)nsc1Nc1cc(Cl)cc(Cl)c1 (centres unmarked) [compound 233] | 6.30 to 7.00
CC(C)NC(=N)c1c(O)nsc1Nc1ccc(C(=O)c2ccccc2)cc1 [compound 234] | 6.30 to 7.00
CC(CO)NC(=N)c1c(O)nsc1Nc1ccc(/C=C/c2ccccc2)cc1 (centres unmarked) [compound 240] | 6.30 to 7.00
CC(C)NC(=N)c1c(O)nsc1Nc1ccc(/C=C/c2ccccc2)cc1 [compound 241] | 6.30 to 7.00
CC(C)NC(=N)c1c(O)nsc1Nc1ccc(Oc2ccc(F)cc2)c(Br)c1 [compound 242] | 6.30 to 7.00
CC(C)NC(=N)c1c(O)nsc1Nc1ccc(O)c(Cl)c1 [compound 243] | 6.30 to 7.00
CC(C)NC(=N)c1c(O)nsc1Nc1ccc(S(=O)(=O)c2ccccc2)cc1 [compound 244] | < 6.30
Cc1ccc(Oc2ccc(Nc3snc(O)c3C(=N)NC(C)C)cc2)cc1 [compound 246] | 7.00 to 9.00
Cc1ccc(Oc2ccc(Nc3snc(O)c3C(=N)NC(C)CO)cc2)cc1 (centres unmarked) [compound 247] | 6.30 to 7.00
CC(C)NC(=N)c1c(O)nsc1Nc1ccc(Oc2cc(Cl)cc(Cl)c2)cc1 [compound 248] | 7.00 to 9.00
CC(C)NC(=N)c1c(O)nsc1Nc1ccc(Oc2cccc(Cl)c2)cc1 [compound 249] | 7.00 to 9.00

SMILES | pIC50
CC(C)NC(=N)c1c(O)nsc1Nc1ccc(Oc2cccc(Br)c2)cc1 [compound 250] | 7.00 to 9.00
CC(CO)NC(=N)c1c(O)nsc1Nc1ccc(Oc2cccc(Br)c2)cc1 (centres unmarked) [compound 251] | 7.00 to 9.00
CC(CO)NC(=N)c1c(O)nsc1Nc1ccc(Oc2cccc(Cl)c2)cc1 (centres unmarked) [compound 252] | 7.00 to 9.00
CC(C)NC(=N)c1c(O)nsc1Nc1ccc(OC2CCNCC2)cc1 [compound 253] | < 6.30
CC(C)NC(=N)c1c(O)nsc1Nc1ccc(Sc2ccccc2)cc1 [compound 255] | 7.00 to 9.00
CC(C)NC(=N)c1c(O)nsc1Nc1ccc(Oc2ccccc2)nc1 [compound 257] | < 6.30
CC(CO)NC(=N)c1c(O)nsc1Nc1ccc(Oc2ccccc2)nc1 (centres unmarked) [compound 258] | < 6.30
Cc1ccc(Oc2ccc(Nc3snc(O)c3C(=N)NC(C)C)cc2)cn1 [compound 259] | < 6.30
CC(C)NC(=N)c1c(O)nsc1Nc1ccc(Oc2cccc(N(C)C)c2)cc1 [compound 260] | 6.30 to 7.00
Cc1cc(C#N)cc(C)c1Oc1ccc(Nc2snc(O)c2C(=N)NC(C)C)cc1 [compound 262] | < 6.30
CC(C)NC(=N)c1c(O)nsc1Nc1ccc(Cl)nc1 [compound 264] | < 6.30
CC(CO)NC(=N)c1c(O)nsc1Nc1ccc(OCc2ccccc2)cc1 (centres unmarked) [compound 265] | < 6.30
Cc1cc(C)cc(Oc2ccc(Nc3snc(O)c3C(=N)NC(C)C)cc2)c1 [compound 267] | 7.00 to 9.00
Cc1cc(C)cc(Oc2ccc(Nc3snc(O)c3C(=N)NC(C)CO)cc2)c1 (centres unmarked) [compound 268] | 6.30 to 7.00
CC(C)NC(=N)c1c(O)nsc1Nc1ccc(Oc2cccc(C(F)(F)F)c2Cl)cc1 [compound 269] | 7.00 to 9.00
COc1cccc(F)c1Oc1ccc(Nc2snc(O)c2C(=N)NC(C)C)cc1 [compound 270] | < 6.30
Cc1cccc(C)c1Oc1ccc(Nc2snc(O)c2C(=N)NC(C)C)cc1 [compound 271] | < 6.30
CC(C)NC(=N)c1c(O)nsc1Nc1ccc(Oc2cccc(F)c2)cc1 [compound 272] | 7.00 to 9.00
CC(CO)NC(=N)c1c(O)nsc1Nc1ccc(Oc2cccc(F)c2)cc1 (centres unmarked) [compound 273] | 7.00 to 9.00
CC(C)NC(=N)c1c(O)nsc1Nc1ccc(Oc2cccc(C(F)(F)F)c2)cc1 [compound 275] | 7.00 to 9.00
Cc1cccc(C)c1Oc1ccc(Nc2snc(O)c2C(=N)NC(C)CO)cc1F (centres unmarked) [compound 276] | < 6.30
CC(C)NC(=N)c1c(O)nsc1Nc1ccc(Oc2ccccc2Cl)c(F)c1 [compound 277] | 7.00 to 9.00
CC(CO)NC(=N)c1c(O)nsc1Nc1ccc(Oc2ccccc2Cl)c(F)c1 (centres unmarked) [compound 278] | 7.00 to 9.00

Next, values leading:

pIC50 | SMILES
7.00 to 9.00 | Cc1cccc(C)c1Oc1ccc(Nc2snc(O)c2C(=N)NC(C)C)cc1F [compound 279]
7.00 to 9.00 | CC(CO)NC(=N)c1c(O)nsc1Nc1ccc(Oc2ccccc2Br)c(Cl)c1 (centres unmarked) [compound 280]
6.30 to 7.00 | COc1cccc(F)c1Oc1ccc(Nc2snc(O)c2C(=N)NC(C)CO)cc1 (centres unmarked) [compound 281]
< 6.30 | Cc1cccc(C)c1Oc1ccc(Nc2snc(O)c2C(=N)NC(C)CO)cc1 (centres unmarked) [compound 282]
6.30 to 7.00 | CC(CO)NC(=N)c1c(O)nsc1Nc1ccc(Oc2cccc(C(C)(C)C)c2)cc1 (centres unmarked) [compound 284]
< 6.30 | Cc1cc(C#N)cc(C)c1Oc1ccc(Nc2snc(O)c2C(=N)NC(C)C)cc1Cl [compound 285]
7.00 to 9.00 | CC(C)NC(=N)c1c(O)nsc1Nc1ccc(Oc2ccccc2)c(Cl)c1 [compound 286]
7.00 to 9.00 | CC(C)NC(=N)c1c(O)nsc1Nc1ccc(Oc2cc(F)cc(F)c2)cc1 [compound 287]
7.00 to 9.00 | Cc1ccc(Cl)c(Oc2ccc(Nc3snc(O)c3C(=N)NC(C)CO)cc2)c1 (centres unmarked) [compound 288]
7.00 to 9.00 | Cc1cccc(Oc2ccc(Nc3snc(O)c3C(=N)NC(C)CO)cc2)c1 (centres unmarked) [compound 289]
7.00 to 9.00 | CC(C)NC(=N)c1c(O)nsc1Nc1ccc(Oc2ccccc2Br)c(Cl)c1 [compound 290]
7.00 to 9.00 | Cc1cccc(Oc2ccc(Nc3snc(O)c3C(=N)NC(C)C)cc2)c1 [compound 291]
7.00 to 9.00 | Cc1ccc(Cl)c(Oc2ccc(Nc3snc(O)c3C(=N)NC(C)C)cc2)c1 [compound 292]
7.00 to 9.00 | CC(C)NC(=N)c1c(O)nsc1Nc1ccc(Oc2ccccc2Br)cc1 [compound 293]
6.30 to 7.00 | CC(C)NC(=N)c1c(O)nsc1Nc1ccc(Oc2cc(C(F)(F)F)ccc2Cl)cc1 [compound 294]
7.00 to 9.00 | CC(CO)NC(=N)c1c(O)nsc1Nc1ccc(Oc2ccccc2Br)cc1 (centres unmarked) [compound 295]
6.30 to 7.00 | CC(C)NC(=N)c1c(O)nsc1Nc1ccc(Oc2ccc(F)cc2Cl)cc1 [compound 296]
6.30 to 7.00 | CC(C)NC(=N)c1c(O)nsc1Nc1ccc(Oc2ccc(F)cc2Cl)c(Cl)c1 [compound 297]
6.30 to 7.00 | CC(C)NC(=N)c1c(O)nsc1Nc1ccc(Oc2ccc(O)cc2)cc1 [compound 298]
7.00 to 9.00 | Cc1ccccc1Oc1ccc(Nc2snc(O)c2C(=N)NC(C)CO)cc1 (centres unmarked) [compound 300]

pIC50 | SMILES
7.00 to 9.00 | Cc1ccccc1Oc1ccc(Nc2snc(O)c2C(=N)NC(C)C)cc1 [compound 301]
7.00 to 9.00 | CC(CO)NC(=N)c1c(O)nsc1Nc1ccc(Oc2ccccc2F)c(F)c1 (centres unmarked) [compound 303]
7.00 to 9.00 | Cc1ccc(Cl)cc1Oc1ccc(Nc2snc(O)c2C(=N)NC(C)CO)cc1 (centres unmarked) [compound 304]
7.00 to 9.00 | CC(CO)NC(=N)c1c(O)nsc1Nc1ccc(Oc2ccccc2)c(F)c1 (centres unmarked) [compound 306]
7.00 to 9.00 | CC(C)NC(=N)c1c(O)nsc1Nc1ccc(Oc2ccccc2)c(F)c1 [compound 307]
6.30 to 7.00 | CC(C)NC(=N)c1c(O)nsc1Nc1ccc(Oc2cc(F)ccc2Cl)cc1 [compound 308]
< 6.30 | CNC(=N)c1c(O)nsc1Nc1ccc(Oc2ccccc2)c(F)c1 [compound 309]
7.00 to 9.00 | CC(C)NC(=N)c1c(O)nsc1Nc1ccc(Oc2ccccc2F)c(F)c1 [compound 310]
6.30 to 7.00 | Cc1ccc(Cl)cc1Oc1ccc(Nc2snc(O)c2C(=N)NC(C)C)cc1 [compound 311]
< 6.30 | CC(C)NC(=N)c1c(O)nsc1Nc1ccc(Oc2cc(Cl)ccc2Cl)cc1 [compound 313]
< 6.30 | CC(C)NC(=N)c1c(O)nsc1Nc1ccc(-n2cccn2)cc1 [compound 314]
< 6.30 | CC(CO)NC(=N)c1c(O)nsc1Nc1ccc(-n2cccn2)cc1 (centres unmarked) [compound 315]
7.00 to 9.00 | Cc1cc(Nc2snc(O)c2C(=N)NC(C)C)ccc1Oc1ccccc1Cl [compound 316]
6.30 to 7.00 | Cc1cc(Nc2snc(O)c2C(=N)NC(C)C)ccc1Oc1ccccc1 [compound 317]
6.30 to 7.00 | CC(C)NC(=N)c1c(O)nsc1Nc1ccc(Oc2c(F)ccc(F)c2Cl)cc1 [compound 318]
7.00 to 9.00 | CC(C)NC(=N)c1c(O)nsc1Nc1ccc(Oc2cc(F)ccc2Cl)c(F)c1 [compound 319]
7.00 to 9.00 | CC(C)NC(=N)c1c(O)nsc1Nc1ccc(Oc2ccc(Cl)cc2Cl)c(F)c1 [compound 320]
7.00 to 9.00 | CC(CO)NC(=N)c1c(O)nsc1Nc1ccc(Oc2cc(F)ccc2Cl)c(F)c1 (centres unmarked) [compound 322]
6.30 to 7.00 | CC(CO)NC(=N)c1c(O)nsc1Nc1ccc(Oc2c(F)ccc(F)c2Cl)cc1 (centres unmarked) [compound 323]
